According to patent publication US12030876B2, “Aryl hydrocarbon receptor (AHR) agonists and uses thereof” (Ikena Oncology, Inc., priority 2019, dated 2024):

molecular target: T1, AHR (Homo sapiens, UniProt P35869); assay: DRE-Luciferase Reporter Assay, HepG2 (agonist); format: cell-based; details: DRE-Luc HepG2 - Agonist: Average EC50 (μM), HepG2, Table 2
T1 construct: endogenous in cells; host or cells: HepG2 (human), transfected with a DRE-luciferase reporter only
T1 sequence (P35869 11-848): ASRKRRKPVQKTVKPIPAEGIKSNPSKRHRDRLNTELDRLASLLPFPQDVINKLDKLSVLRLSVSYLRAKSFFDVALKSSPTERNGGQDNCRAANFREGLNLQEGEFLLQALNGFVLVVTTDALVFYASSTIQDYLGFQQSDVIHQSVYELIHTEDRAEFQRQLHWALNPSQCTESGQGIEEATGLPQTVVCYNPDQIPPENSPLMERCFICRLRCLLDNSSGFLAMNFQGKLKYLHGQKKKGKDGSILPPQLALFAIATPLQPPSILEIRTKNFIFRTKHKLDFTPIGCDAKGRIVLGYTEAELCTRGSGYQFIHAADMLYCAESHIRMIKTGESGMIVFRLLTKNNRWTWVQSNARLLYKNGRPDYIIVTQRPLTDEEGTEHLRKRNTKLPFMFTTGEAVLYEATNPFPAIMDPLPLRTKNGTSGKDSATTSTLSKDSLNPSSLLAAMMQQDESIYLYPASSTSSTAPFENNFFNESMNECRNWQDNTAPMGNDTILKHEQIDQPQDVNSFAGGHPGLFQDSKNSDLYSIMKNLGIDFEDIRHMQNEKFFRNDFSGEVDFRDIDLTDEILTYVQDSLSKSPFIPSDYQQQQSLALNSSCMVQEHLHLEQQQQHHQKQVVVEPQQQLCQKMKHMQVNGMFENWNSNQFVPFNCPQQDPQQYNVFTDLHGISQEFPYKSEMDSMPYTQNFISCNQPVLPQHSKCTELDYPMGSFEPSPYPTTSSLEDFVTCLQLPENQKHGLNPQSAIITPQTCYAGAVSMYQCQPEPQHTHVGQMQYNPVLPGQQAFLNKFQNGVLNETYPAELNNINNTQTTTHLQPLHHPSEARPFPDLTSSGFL
Protocol: DRE-Luciferase Reporter Assay
AHR binds to Dioxin Responsive Elements (DRE) upstream of genes that it activates. One measure of AHR activity is activation of a reporter gene, such as luciferase, downstream of one or multiple DRE elements. Luciferase activity reflects activation and inhibition of AHR in the cells expressing this reporter.
Murine Hepa1-6 or Hepa-1c1c7 or other murine cell line with a DRE-luciferase reporter either stably or transiently transfected are plated in media in plates (96-well, 384-well or other plates) and incubated overnight at 37 C in a CO2 incubator. Likewise, human HepG2 or other human cell line with a DRE-luciferase reporter either stably or transiently transfected are plated in media in plates (96-well, 384-well or other plates) and incubated overnight at 37 C in a CO2 incubator.
The next day, an AHR agonist compound is added. Cells are incubated for 6, 16 or 24 hours or another time point and then lysed for determination of luciferase activity as a read-out of the AHR activation. Luciferase can be measured with a commercial kit such as the Promega Luciferase kit or any kit or reagents that provide the luciferin substrate for measuring luciferase activity. The level of luciferase with only activating ligand (e.g. such as TCDD, kynurenine, ITE (2-(1H-indole-3-ylcarbonyl)-4-thiazolecarboxylic methyl ester), VAF347, BNF (beta-naphthoflavone), ICZ (6-formylindolo(3,2-b) carbazole or other AHR ligands) added is the maximum signal while the luciferase with no ligand is the minimum signal. EC50s can be determined as the concentration which activates half of the maximum luciferase activity.

Row | EC50 [µM] | SMILES
1 | > 1 | c1ccc(Nc2nc(-c3ccccc3)cs2)cc1 [Compound P-14]

same assay, conditions: DRE-Luc HepG2 - Agonist: Average EC50 (μM), HepG2, Table 3

Row | EC50 [µM] | SMILES
2 | > 1 | O=C(O)c1cccc(Nc2nc(-c3cccc([N+](=O)[O-])c3)cs2)c1 [I-81]

same assay, conditions: HepG2, Table 2; read-out: DRE-Luc HepG2 - Agonist: Average EC50

Row | SMILES | EC50 [µM]
3 | C[N+](C)(CCO)CCOCCN(c1cccc(C(F)(F)F)c1)c1nc(-c2cccc(Cl)c2)cs1 [I-45] | 0.1 to 1
4 | C[N+](C)(CCO)CCOCCN(c1ccc(C(F)(F)F)cc1)c1nc(-c2cccc(Cl)c2)cs1 [I-52] | > 1
5 | FC(F)(F)c1ccc(Nc2nc(-c3cccc(Cl)c3)co2)cc1 [I-63] | 0.1 to 1
6 | FC(F)(F)c1ccc(Nc2nnc(-c3cccc(Cl)c3)[nH]2)cc1 [I-65] | > 1
7 | Oc1cccc(-c2cnc(Nc3ccc(C(F)(F)F)cc3)o2)c1 [I-68] | > 1
8 | Cn1cc(-c2cccc(Cl)c2)nc1Nc1cccc(C(F)(F)F)c1 [I-70] | > 1
9 | CN(C)CCOc1ccc(-c2cnc(Nc3ccc(C(F)(F)F)cc3)o2)cc1 [I-74] | > 1
10 | Oc1ccccc1-c1cnc(Nc2ccc(C(F)(F)F)cc2)o1 [I-75] | > 1

Now from value to compound:

Row | EC50 [µM] | SMILES
11 | > 1 | C[N+](C)(CCOCCN(c1cccc(C(F)(F)F)c1)c1nc(-c2cccc(Cl)c2)cs1)CC(=O)O [I-51]
12 | 0.1 to 1 | FC(F)(F)c1ccc(Nc2ncc(-c3ccccc3Cl)o2)cc1 [I-62]
13 | > 1 | FC(F)(F)c1ccc(Nc2nnc(-c3cccc(Cl)c3)o2)cc1 [I-64]
14 | > 1 | Oc1ccc(-c2cnc(Nc3ccc(C(F)(F)F)cc3)o2)cc1 [I-67]
15 | > 1 | CN(C)CCOc1cccc(-c2cnc(Nc3ccc(C(F)(F)F)cc3)o2)c1 [I-69]
16 | > 1 | Cn1c(-c2cccc(Cl)c2)cnc1Nc1cccc(C(F)(F)F)c1 [I-71]
17 | > 1 | C[N+](C)(C)CCOc1cccc(-c2cnc(Nc3ccc(C(F)(F)F)cc3)o2)c1 [I-72]
18 | > 1 | C[N+](C)(C)CCOc1ccc(-c2cnc(Nc3ccc(C(F)(F)F)cc3)o2)cc1 [I-73]

same assay, conditions: HepG2, Table 3; read-out: DRE-Luc HepG2 - Agonist: Average EC50

Row | SMILES | EC50 [µM]
19 | N#Cc1cc(Cl)cc(-c2csc(Nc3cccc(C(F)(F)F)c3)n2)c1 [I-80] | 0.01 to 0.1
20 | NC(=O)c1cccc(Nc2nc(-c3cccc([N+](=O)[O-])c3)cs2)c1 [I-82] | > 1
21 | O=[N+]([O-])c1cccc(-c2csc(Nc3ccc(C(F)(F)F)cc3)n2)c1 [I-84] | 0.01 to 0.1
22 | O=S(=O)(O)c1cccc(-c2csc(Nc3cccc(C(F)(F)F)c3)n2)c1 [I-85] | > 1
23 | CN(CCNC(=O)N(c1cccc(C(F)(F)F)c1)c1nc(-c2cccc(Cl)c2)cs1)CC(=O)O [I-86] | < 0.01
24 | N#Cc1cc(C(=O)O)cc(-c2csc(Nc3cccc(C(F)(F)F)c3)n2)c1 [I-95] | > 1
25 | O=[N+]([O-])c1cccc(-c2csc(Nc3cncc(C(F)(F)F)c3)n2)c1 [I-96] | < 0.01
26 | NC(=O)c1cc(-c2csc(Nc3cccc(C(F)(F)F)c3)n2)c[n+]([O-])c1 [I-99] | > 1
27 | NC(=O)c1cc(-c2csc(Nc3cccc(C(F)(F)F)c3)n2)cc([N+](=O)[O-])c1 [I-101] | > 1
28 | COC(=O)c1cncc(-c2csc(Nc3cccc(C(F)(F)F)c3)n2)c1 [I-102] | > 1
29 | COC(=O)c1cccc(Nc2nc(-c3cccc(C#N)c3)cs2)c1 [I-104] | > 1
30 | NC(=O)c1cccc(-c2csc(Nc3cncc(C(F)(F)F)c3)n2)c1 [I-105] | > 1
31 | COC(=O)c1cccc(-c2csc(Nc3cccc(C(F)(F)F)c3)n2)c1 [I-106] | 0.1 to 1

The next lines start with the values.

Row | EC50 [µM] | SMILES
32 | > 1 | O=C(O)c1cc(-c2csc(Nc3cccc(C(F)(F)F)c3)n2)cc([N+](=O)[O-])c1 [I-78]
33 | > 1 | O=C(O)c1cncc(-c2csc(Nc3cccc(C(F)(F)F)c3)n2)c1 [I-79]
34 | > 1 | C[N+]1(C)CCN(C(=O)c2cccc(Nc3nc(-c4cccc([N+](=O)[O-])c4)cs3)c2)CC1 [I-88]
35 | > 1 | [O-][n+]1ccccc1-c1csc(Nc2cccc(C(F)(F)F)c2)n1 [I-94]
36 | 0.1 to 1 | C[n+]1cccc(-c2csc(N(C(=O)NCCC[N+](C)(C)C)c3cccc(C(F)(F)F)c3)n2)c1 [I-98]
37 | > 1 | O=[N+]([O-])c1cccc(-c2csc(Nc3cccc(S(=O)(=O)O)c3)n2)c1 [I-103]
